Target: PD-L1 His protein / PD-1 Fc protein (Homo sapiens, UniProt Q9NZQ7)
Assay: HTRF Assay (PD-1/PD-L1 interaction)
Assay type: binding
Conditions: PD-L1 His 6 nM, PD-1 Fc 6 nM
Method: PD-L1 His protein was prepared and added at the final concentration of 6 nM in the White opaque 384 well plate (Corning cat #3824BC). PD-L1 small molecule inhibitors were diluted by 3-fold starting from 20 μM and a final concentration of 0.001 μM and added to the well. PD-1 Fc protein was added at the final concentration of 6 nM. PD-L1 His protein, PD-L1 small molecule inhibitors, and PD1 Fc proteins were added to the well in this order, with each 5 μl volume, and were incubated for 15 minutes at room temperature. PAb anti-Human IgG-XL665 (Cisbio, cat #61HFCXLA) and Mab anti-6HIS Tb cryptate Gold (Cisbio, cat #61HI2TLA) were mixed at 6.7 nM and 0.35 nM respectively, and total 5 μl volume of mixture was added to the well and incubated at room temperature for 1 hour. The plate was read using PerkinElmer Envision plate reader and data was analyzed by Prism 6 software.

Sequence of PD-L1 His protein / PD-1 Fc protein (Q9NZQ7 19-238 limits assumed): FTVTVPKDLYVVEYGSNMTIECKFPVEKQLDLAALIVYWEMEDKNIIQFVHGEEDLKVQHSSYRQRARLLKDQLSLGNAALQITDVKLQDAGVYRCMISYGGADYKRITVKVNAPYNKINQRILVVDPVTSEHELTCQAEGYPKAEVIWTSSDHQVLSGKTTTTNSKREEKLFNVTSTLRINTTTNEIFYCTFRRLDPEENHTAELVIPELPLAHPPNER

Compound	IC50 [nM]
CN1CCC(NCCO)c2ccc(-c3cccc(-c4cccc(-c5ccc6c(n5)N(C)CCC6NCCO)c4Cl)c3Cl)nc21 (mixture of isomers) [Example 34, 2,2′-(((2,2′-Dichloro-[1,1′-biphenyl]-3,3′-diyl)bis(1-methyl-1,2,3,4-tetrahydro-1,8-naphthyridine-7,4-diyl))bis(azanediyl))bis(ethan-1-ol)]	4.8
Cc1c(-c2ccn3c(=O)c(CNC[C@@H]4CCC(=O)N4)cnc3c2)cccc1-c1cccc(-c2ccc3c(c2)CC(N)C3)c1Cl (mixture of isomers) [Example 40, 8-(3′-(2-Amino-2,3-dihydro-1H-inden-5-yl)-2′-chloro-2-methyl-[1,1′-biphenyl]-3-yl)-3-(((((S)-5-oxopyrrolidin-2-yl)methyl)amino)methyl)-4H-pyrido[1,2-a]pyrimidin-4-one]	61
Cc1c(-c2ccc3c(c2)CC(N)C3)cccc1-c1cccc(-c2ccn3c(=O)c(CNC[C@@H]4CCC(=O)N4)cnc3c2)c1C (mixture of isomers) [Example 41, 8-(3′-(2-Amino-2,3-dihydro-1H-inden-5-yl)-2,2′-dimethyl-[1,1′-biphenyl]-3-yl)-3-(((((S)-5-oxopyrrolidin-2-yl)methyl)amino)methyl)-4H-pyrido[1,2-a]pyrimidin-4-one]	93
Cc1c(-c2ccn3c(=O)c(CNC[C@@H]4CCC(=O)N4)cnc3c2)cccc1-c1cccc(-c2ccc3c(c2)CC(NC(=O)CN)C3)c1Cl (mixture of isomers) [Example 43, 2-Amino-N-(5-(2-chloro-2′-methyl-3′-(4-oxo-3-(((((S)-5-oxopyrrolidin-2-yl)methyl)amino)methyl)-4H-pyrido[1,2-a]pyrimidin-8-yl)-[1,1′-biphenyl]-3-yl)-2,3-dihydro-1H-inden-2-yl)acetamide]	270
Cc1c(-c2ccn3c(=O)c(CNC[C@@H]4CCC(=O)N4)cnc3c2)cccc1-c1cccc(-c2ccc3c(c2)CC(NC(=O)[C@@H](N)CO)C3)c1Cl (mixture of isomers) [Example 45, (2S)-2-Amino-N-(5-(2-chloro-2′-methyl-3′-(4-oxo-3-(((((S)-5-oxopyrrolidin-2-yl)methyl)amino)methyl)-4H-pyrido[1,2-a]pyrimidin-8-yl)-[1,1′-biphenyl]-3-yl)-2,3-dihydro-1H-inden-2-yl)-3-hydroxypropanamide]	680
Cc1c(-c2ccn3c(=O)c(CNC[C@@H]4CCC(=O)N4)cnc3c2)cccc1-c1cccc(-c2ccc3c(c2)CC(NC(=O)[C@@H]2CCCN2)C3)c1Cl (mixture of isomers) [Example 46, (2S)—N-(5-(2-Chloro-2′-methyl-3′-(4-oxo-3-(((((S)-5-oxopyrrolidin-2-yl)methyl)amino)methyl)-4H-pyrido[1,2-a]pyrimidin-8-yl)-[1,1′-biphenyl]-3-yl)-2,3-dihydro-1H-inden-2-yl)pyrrolidine-2-carboxamide]	520
COc1nc(-c2cccc(-c3cccc(-c4ccn5c(=O)c(CNC6CNC(=O)C6)cnc5c4)c3Cl)c2Cl)ccc1CNC1CNC(=O)C1 (mixture of isomers) [Example 63, 8-(2,2′-Dichloro-3′-(6-methoxy-5-(((5-oxopyrrolidin-3-yl)amino)methyl)pyridin-2-yl)-[1,1′-biphenyl]-3-yl)-3-(((5-oxopyrrolidin-3-yl)amino)methyl)-4H-pyrido[1,2-a]pyrimidin-4-one]	1.5
COc1nc(-c2cccc(-c3cccc(-c4ccn5c(=O)c(C6=NCC(C(=O)O)N6)cnc5c4)c3Cl)c2Cl)ccc1CNC[C@@H]1CCC(=O)N1 (mixture of isomers) [Example 179, 2-(8-(2,2′-Dichloro-3′-(6-methoxy-5-(((((S)-5-oxopyrrolidin-2-yl)methyl)amino)methyl)pyridin-2-yl)-[1,1′-biphenyl]-3-yl)-4-oxo-4H-pyrido[1,2-a]pyrimidin-3-yl)-4,5-dihydro-1H-imidazole-5-carboxylic acid]	0.1
COc1nc(-c2cccc(-c3cccc(-c4ccn5c(=O)c(CNC[C@@H]6CCC(=O)N6)cnc5c4)c3Cl)c2Cl)ccc1C1=NCCC(C(=O)O)N1 (mixture of isomers) [Example 180, 2-(6-(2,2′-Dichloro-3′-(4-oxo-3-(((((S)-5-oxopyrrolidin-2-yl)methyl)amino)methyl)-4H-pyrido[1,2-a]pyrimidin-8-yl)-[1,1′-biphenyl]-3-yl)-2-methoxypyridin-3-yl)-3,4,5,6-tetrahydropyrimidine-4-carboxylic acid]	0.9
COc1nc(-c2cccc(-c3cccc(-c4ccn5c(=O)c(C6=NCCC(C(=O)O)N6)cnc5c4)c3Cl)c2Cl)ccc1CNC[C@@H]1CCC(=O)N1 (mixture of isomers) [Example 199, 2-(8-(2,2′-Dichloro-3′-(6-methoxy-5-(((((S)-5-oxopyrrolidin-2-yl)methyl)amino)methyl)pyridin-2-yl)-[1,1′-biphenyl]-3-yl)-4-oxo-4H-pyrido[1,2-a]pyrimidin-3-yl)-3,4,5,6-tetrahydropyrimidine-4-carboxylic acid]	0.1
COc1nc(-c2cccc(-c3cccc(-c4ccn5c(=O)c(CNCC6CCCC(=O)N6)cnc5c4)c3Cl)c2Cl)ccc1CNC[C@@H]1CCC(=O)N1 (mixture of isomers) [Example 206, 8-(2,2′-Dichloro-3′-(6-methoxy-5-(((((S)-5-oxopyrrolidin-2-yl)methyl)amino)methyl)pyridin-2-yl)-[1,1′-biphenyl]-3-yl)-3-((((6-oxopiperidin-2-yl)methyl)amino)methyl)-4H-pyrido[1,2-a]pyrimidin-4-one]	14
COc1nc(CC2CCc3c(-c4cccc(-c5ccn6c(=O)c(CNC[C@@H]7CCC(=O)N7)cnc6c5)c4Cl)cccc32)c(Cl)cc1CNC[C@@H]1CCC(=O)N1 (mixture of isomers) [Example 213, 8-(2-chloro-3-(1-((3-chloro-6-methoxy-5-(((((S)-5-oxopyrrolidin-2-yl)methyl)amino)methyl)pyridin-2-yl)methyl)-2,3-dihydro-1H-inden-4-yl)phenyl)-3-(((((S)-5-oxopyrrolidin-2-yl)methyl)amino)methyl)-4H-pyrido[1,2-a]pyrimidin-4-one]	3700
COc1nc(-c2cccc(-c3cccc(-c4ccn5c(=O)c(CNCC6CC(F)(F)C(=O)N6)cnc5c4)c3Cl)c2Cl)ccc1CNC[C@@H]1CCC(=O)N1 (mixture of isomers) [Example 253, 8-[2-Chloro-3-[2-chloro-3-[6-methoxy-5-[[[(2S)-5-oxopyrrolidin-2-yl]methylamino]methyl]-2-pyridyl]phenyl]phenyl]-3-[[(4,4-difluoro-5-oxo-pyrrolidin-2-yl)methylamino]methyl]pyrido[1,2-a]pyrimidin-4-one]	5.7
COc1nc(-c2cccc(-c3cccc(-c4ccn5c(=O)c(CN6CCC6C(N)=O)cnc5c4)c3Cl)c2Cl)ccc1CNC[C@@H]1CCC(=O)N1 (mixture of isomers) [Example 259, 1-[[8-[2-Chloro-3-[2-chloro-3-[6-methoxy-5-[[[(2S)-5-oxopyrrolidin-2-yl]methylamino]methyl]-2-pyridyl]phenyl]phenyl]-4-oxo-pyrido[1,2-a]pyrimidin-3-yl]methyl]azetidine-2-carboxamide]	2.3
COc1nc(-c2cccc(-c3cccc(-c4ccn5c(=O)c(CNCC(O)C6CC6)cnc5c4)c3Cl)c2Cl)ccc1CNC[C@@H]1CCC(=O)N1 (mixture of isomers) [Example 274, 3-(((2-Cyclopropyl-2-hydroxyethyl)amino)methyl)-8-(2,2′-dichloro-3′-(6-methoxy-5-(((((S)-5-oxopyrrolidin-2-yl)methyl)amino)methyl)pyridin-2-yl)-[1,1′-biphenyl]-3-yl)-4H-pyrido[1,2-a]pyrimidin-4-one]	65
COc1nc(-c2cccc(-c3cccc(-c4ccn5c(=O)c(CNCC(C)(O)C6CC6)cnc5c4)c3Cl)c2Cl)ccc1CNC[C@@H]1CCC(=O)N1 (mixture of isomers) [Example 280, 3-(((2-cyclopropyl-2-hydroxypropyl)amino)methyl)-8-(2,2′-dichloro-3′-(6-methoxy-5-(((((S)-5-oxopyrrolidin-2-yl)methyl)amino)methyl)pyridin-2-yl)-[1,1′-biphenyl]-3-yl)-4H-pyrido[1,2-a]pyrimidin-4-one]	37
COc1nc(-c2cccc(-c3cccc(-c4ccc5c(c4)OCCC5NC[C@@H]4CCC(=O)N4)c3Cl)c2Cl)ccc1CNC[C@@H]1CCC(=O)N1 (mixture of isomers) [Example 326, (5S)-5-((((6-(2,2′-Dichloro-3′-(4-((((S)-5-oxopyrrolidin-2-yl)methyl)amino)chroman-7-yl)-[1,1′-biphenyl]-3-yl)-2-methoxypyridin-3-yl)methyl)amino)methyl)pyrrolidin-2-one]	24
COc1nc(-c2cccc(-c3cccc(-c4ccc5c(n4)N(C)CCC5NC[C@@H]4CCC(=O)N4)c3Cl)c2Cl)ccc1CNC[C@@H]1CCC(=O)N1 (mixture of isomers) [Example 51, (5S)-5-(((7-(2,2′-Dichloro-3′-(6-methoxy-5-(((((S)-5-oxopyrrolidin-2-yl)methyl)amino)methyl)pyridin-2-yl)-[1,1′-biphenyl]-3-yl)-1-methyl-1,2,3,4-tetrahydro-1,8-naphthyridin-4-yl)amino)methyl)pyrrolidin-2-one]	2.9
COc1nc(-c2cccc(-c3cccc(-c4ccc5c(n4)N(C)CCC5NC[C@@H]4CCC(=O)N4)c3Cl)c2Cl)cnc1CNC[C@@H]1CCC(=O)N1 (mixture of isomers) [Example 56, (5S)-5-(((7-(2,2′-Dichloro-3′-(6-methoxy-5-(((((S)-5-oxopyrrolidin-2-yl)methyl)amino)methyl)pyrazin-2-yl)-[1,1′-biphenyl]-3-yl)-1-methyl-1,2,3,4-tetrahydro-1,8-naphthyridin-4-yl)amino)methyl)pyrrolidin-2-one]	0.7

— patent US20230143612A1 (Arbutus Biopharma Corporation, priority 2020, published 2023)
